Source: patent publication US12060334B2, “3-substituted phenazine derivatives as antimicrobial agents” (University of Florida Research Foundation, Incorporated, priority 2021, dated 2024)
In brackets after ≈: the same amount, converted by molar mass. Several values for one entry are separate records, joined by “and”; a condition that tells them apart may be missing. Identical values can stand only once. Entries after “also recorded” stand apart in the source; their conditions may differ. Like-named read-outs stand apart in the source and are kept apart here. Marks after values point to notes of the source that are not given here.

Key:
[1] = pKa determination by UV-vis spectroscopy; format: physicochemical
Protocol: (c) pKa determination of select HP analogues.^36 Dissociation constants (pKa) for select HP analogues were determined using UV-vis spectroscopy and the Henderson-Hasselbalch equation. Buffers were prepared using potassium phosphate monobasic (KH2PO4) and sodium phosphate dibasic ([…]) in a 1:1 solution of water:methanol to achieve a pH range of 4.07 to 9.66 (ammonium hydroxide was added to prepare buffer pH over 9.80). Compounds were added from 10 mM stock solutions in dimethyl sulfoxide (25 μL) to 1975 μL of each buffer to each evaluate analogue to yield a final compound concentration of 125 μM. Full spectral scans were performed from 200 to 800 nm in 2 nm increments to determine λmax values for the protonated phenol (HA) and the deprotonated phenolate species (A^−). The change in absorption at each determined λmax in relation to pH was monitored in each buffer and plotted as absorbance versus pH for each species. The pKa was first estimated by determining the pH of the point of intersection of the two linear curves. The visual estimation was confirmed by plotting pH versus log [A^−/HA]. The resulting plot yielded a linear regression line with a Y-intercept corresponding to a calculated pKa value.

MRSA-1707 = assay: MIC susceptibility assay (broth microdilution); settings: 16 h; for MIC: Staphylococcus aureus, MRSA, read-out: MIC MRSA-1707, planktonic growth inhibition, 16 h, 37° C.
Protocol: (§1) (MIC values were further supported by spectrophotometric readings at OD600). The concentration range tested for each HP compound during this study was 0.05 to 50 μM. DMSO served as our vehicle and negative control in each microdilution MIC assay. DMSO was serially diluted with a top concentration of 0.5% v/v.

MRSE 35984 = assay: MIC susceptibility assay (broth microdilution); settings: Staphylococcus epidermidis, MRSE, 16 h, read-out: MIC MRSE 35984
Protocol: as §1

VRE 700221 = assay: MIC susceptibility assay (broth microdilution); settings: Enterococcus, VRE, 16 h, read-out: MIC VRE 700221
Protocol: The concentration range tested for each HP compound during this study was 0.05 to 50 μM. DMSO served as our vehicle and negative control in each microdilution MIC assay. DMSO was serially diluted with a top concentration of 0.5% v/v.

E. faecalis OG1RF = assay: MIC susceptibility assay (broth microdilution); settings: Enterococcus faecalis, 16 h, read-out: MIC E. faecalis OG1RF
Protocol: as §1

MRSA-44 = assay: MIC susceptibility assay (broth microdilution); settings: Staphylococcus aureus, 16 h, read-out: MIC MRSA-44
Protocol: as §1

Mtb H37Ra = assay: MIC assay for Mtb H37Ra; settings: seven days, 37° C.
J774 MΦ = assay: Alamar Blue cytotoxicity assay, J774 macrophages; settings: read-out: J774 MΦ Cytotox. (IC50), 24-h
HepG2 cells = assay: Alamar Blue cytotoxicity assay, HepG2; settings: read-out: Hep G2 Cytotox. (IC50), 24-h
MRSA-1707 biofilms = assay: Calgary Biofilm Device (CBD) assay; settings: Staphylococcus aureus, read-out: MRSA-1707 MBC
human red blood cells = assay: Hemolysis assay with red blood cells; settings: human RBCs, 1 hour, 37° C.
Protocol: Hemolysis assays are used to determine the membrane-lysis activity of a compound, which is of particular interest to this work as membrane-lysing agents (e.g., QACs) can eradicate biofilms.
Cytotoxicity Assay against HEK-293 Cells.^48 The viability of HEK-293 cells was assessed by the MTT assay. The cells were cultured in DMEM medium containing 10% fetal bovine serum and 100 U/mL penicillin and streptomycin. The cells (10^4 cells/well) were seeded onto a 96-well plate and maintained at 37° C. in a humidified incubator under 5% CO2 overnight. […] After incubation at 37° C. for 72 hours, 10 μL of MTT (5 mg/mL) in PBS was added to each well and incubated for 4 hours, followed by the aspiration of the medium. Dimethyl sulfoxide (DMSO, 100 μL) was then added to each well to dissolve the MTT in the wells, and the plate was agitated for 1 hour. The optical density (OD) was measured at 570 nm using a UV/vis microplate spectrophotometer (BioTek). The percent inhibition was calculated as follows: Inhibition (%)=(1−test OD570/non-treated OD570)×100%. The data were analyzed by Origin. Hemolysis Assay with Red Blood Cells. […] The washing was repeated three times with the buffer. In 96-well plate, test compounds were added to the buffer from DMSO stocks. […] The plate was then incubated for 1 hour at 37° C. After incubation, the plate was centrifuged for 5 minutes at 3,500 rpm before 80 μL of the supernatant was transferred to another 96-well plate to obtain an optical density (OD) read at 405 nm. DMSO served as the negative control (0% hemolysis) while Triton X served as the positive control (100% hemolysis) in these experiments. The percent hemolysis was calculated as (OD405 of the compound treated RBCs−OD405 DMSO control)/(OD405 Triton X treated RBCs−OD405 buffer) from three independent experiments.

Mtb CDC1551 = assay: microbe, parasite or virus in culture; format: cell-based, Mycobacterium tuberculosis; settings: Mycobacterium tuberculosis, CDC1551, 120 h
HeLa cells = assay: LDH release assay for HeLa cytotoxicity; settings: read-out: HeLa Cell Cytotox. (IC50), 24-h, tested at 25, 50 and 100 μM
[2] = tested on: isdB, sfaA, sbnC, MW0695 transcripts in MRSA-1707 biofilms; assay: RT-qPCR of iron uptake genes in MRSA biofilms; settings: 4 h treatment at 1 μM or 1/10×MBEC
MRSE 35984 biofilms = assay: Calgary Biofilm Device (CBD) assay; settings: Staphylococcus epidermidis, MRSE, read-out: MRSE 35984 MBC
[3] = tested on: E. faecalis OG1RF biofilms; assay: Calgary Biofilm Device (CBD) assay; settings: Enterococcus faecalis, OG1RFBIOFILMS, read-out: E.faecalis OG1RF MBC
[4] = tested on: MRSA, MRSE and VRE strains; assay: MIC assays, summary statements over several Gram-positive strains
Protocol: as §1

VRE 700221 biofilms = assay: Calgary Biofilm Device (CBD) assay; settings: Enterococcus, read-out: VRE 700221 MBC

Structure (SMILES)	MIC (MRSA-1707) [µM]	MIC (MRSE 35984) [µM]	MIC (E. faecalis OG1RF) [µM]	MIC (MRSA-44) [µM]	IC50 (J774 MΦ) [µM]	IC50 (HepG2 cells) [µM]	% Hemolysis at 200 μM (human red blood cells) [%]	MIC (Mtb CDC1551) [µM]	also measured
O=[N+]([O-])c1ccc(O)cc1 [4-nitrophenol, reference compound]	–	–	–	–	–	–	–	–	pKa ([1]; UV-vis, 1:1 water:methanol phosphate buffers): 7.52
Oc1cc(Cl)cc2nc3ccccc3nc12 [Compound 18, 3-Chlorophenazin-1-ol]	25 (≈ 5.77 µg/mL)	18.8 (≈ 4.34 µg/mL)	–	–	–	–	–	–	MIC (VRE 700221): > 50 µM
Cc1ccc2nc3c(O)cc(Cl)cc3nc2c1C [Compound 20, 3-Chloro-6,7-dimethylphenazin-1-ol]	–	–	12.5 (≈ 3.23 µg/mL)	–	–	–	–	–	–
Oc1cc(Cl)cc2nc3c(Oc4ccccc4)cccc3nc12 [Compound 22, 3-Chloro-6-phenoxyphenazin-1-ol]	3.13 (≈ 1.01 µg/mL)	3.13 (≈ 1.01 µg/mL)	–	3.13 (≈ 1.01 µg/mL)	–	–	–	–	–
Oc1cc(Cl)cc2nc3c(Cl)cc(Cl)cc3nc12 [Compound 24, 3,6,8-Trichlorophenazin-1-ol]	–	–	–	0.3 (≈ 0.0899 µg/mL)	> 200	> 200	≤1	2.31 (≈ 0.692 µg/mL)	MIC Mtb H37Ra (Mtb H37Ra): 3.13 µM (≈ 0.938 µg/mL); MBC (MRSA-1707 biofilms): 18.8 µM (≈ 5.63 µg/mL); IC50 (HeLa cells): > 100 µM
Oc1c(Br)c(Cl)c(Br)c2nc3ccccc3nc12 [Compound 28, 2,4-Dibromo-3-chlorophenazin-1-ol]	0.15 (≈ 0.0583 µg/mL)	–	3.13 (≈ 1.22 µg/mL)	–	> 200	> 200	≤1	4.37 (≈ 1.7 µg/mL)	MIC Mtb H37Ra (Mtb H37Ra): 6.25 µM (≈ 2.43 µg/mL); iron starvation / up-regulation of iron uptake genes in MRSA-1707 biofilms [2]: induction of iron starvation; also recorded: up-regulating iron uptake genes; also recorded: induced rapid iron starvation; also recorded: rapidly induce iron starvation; MBC (MRSE 35984 biofilms): 12.5 µM (≈ 4.86 µg/mL); MBC (MRSA-1707 biofilms): 50 µM (≈ 19.4 µg/mL); MIC MRSA-1707 (MRSA-1707; planktonic growth inhibition, 37° C.): 0.15^a μM and 0.15 μM; MBC [3]: 75 µM (≈ 29.1 µg/mL); IC50 (HeLa cells): > 100 µM; pKa [1]: 5.93
Cc1ccc2nc3c(O)c(Br)c(Cl)c(Br)c3nc2c1C [Compound 30, 2,4-Dibromo-3-chloro-6,7-dimethylphenazin-1-ol]	–	≤ 0.05	0.2 (≈ 0.0833 µg/mL)	0.08 (≈ 0.0333 µg/mL)	> 200	> 200	≤1	3.62 (≈ 1.51 µg/mL)	MIC ([4]; read-out: MIC against MRSA, MRSE and VRE strains): 0.05 to 0.1 µM (≈ 0.0208 to 0.0417 µg/mL); MICs against all Gram-positive strains in the panel ([4]; result in words): sub-micromolar; MBC (MRSE 35984 biofilms): 3.13 µM (≈ 1.3 µg/mL); MBC (VRE 700221 biofilms): 0.78 µM (≈ 0.325 µg/mL)
